Assay: xn = mol fraction of the nth substance listed
Settings: 101 kPa

CCCCc1n(S(=O)(=O)O)cc[n+]1S(=O)(=O)O.O=C([O-])C(F)(F)F + CO
Settings	electrical conductivity [S/m]
278.15 K, x1 = 0.0255	3.18
283.15 K, x1 = 0.0255	3.01
288.15 K, x1 = 0.0255	2.89
293.15 K, x1 = 0.0255	2.72
298.15 K, x1 = 0.0052	1.41
298.15 K, x1 = 0.0155	1.76
298.15 K, x1 = 0.0255	2.65
303.15 K, x1 = 0.0255	2.45
313.15 K, x1 = 0.0255	2.08
318.15 K, x1 = 0.0255	1.91
323.15 K, x1 = 0.0255	1.73
328.15 K, x1 = 0.0255	1.69
333.15 K, x1 = 0.0255	1.57

CCc1n(S(=O)(=O)O)cc[n+]1S(=O)(=O)O.O=C([O-])C(F)(F)F + CO
Settings	electrical conductivity [S/m]
278.15 K, x1 = 0.0255	3.75
288.15 K, x1 = 0.0255	3.44
298.15 K, x1 = 0.0104	1.64
298.15 K, x1 = 0.0155	1.93
298.15 K, x1 = 0.0205	2.27
303.15 K, x1 = 0.0255	3.03
308.15 K, x1 = 0.0255	2.95
318.15 K, x1 = 0.0255	2.51
323.15 K, x1 = 0.0255	2.36
328.15 K, x1 = 0.0255	2.19
333.15 K, x1 = 0.0255	1.96

Cc1n(S(=O)(=O)O)cc[n+]1S(=O)(=O)O.O=C([O-])C(F)(F)F + CO
Settings	electrical conductivity [S/m]
283.15 K, x1 = 0.0255	4
288.15 K, x1 = 0.0255	3.64
298.15 K, x1 = 0.0052	1.38
298.15 K, x1 = 0.0155	2
298.15 K, x1 = 0.0205	2.41
298.15 K, x1 = 0.0255	3.29
298.15 K, x1 = 0.05	4.44
298.15 K, x1 = 0.08	4.49
298.15 K, x1 = 0.1	4.52
298.15 K, x1 = 0.12	4.03
298.15 K, x1 = 0.15	3.28
298.15 K, x1 = 0.18	2.42
298.15 K, x1 = 0.2	1.71
303.15 K, x1 = 0.0255	3.01
308.15 K, x1 = 0.0255	2.98
313.15 K, x1 = 0.0255	2.86
318.15 K, x1 = 0.0255	2.84
323.15 K, x1 = 0.0255	2.73
333.15 K, x1 = 0.0255	2.32

O=C([O-])C(F)(F)F.O=S(=O)(O)n1cc[n+](S(=O)(=O)O)c1 + CO
Settings	electrical conductivity [S/m]
278.15 K, x1 = 0.0255	5.19
283.15 K, x1 = 0.0255	4.9
293.15 K, x1 = 0.0255	4.26
298.15 K, x1 = 0.0104	2.23
298.15 K, x1 = 0.0155	2.85
298.15 K, x1 = 0.0205	3.56
298.15 K, x1 = 0.0255	4.13
298.15 K, x1 = 0.05	5.45
303.15 K, x1 = 0.0255	4.05
318.15 K, x1 = 0.0255	3.52
323.15 K, x1 = 0.0255	3.46
328.15 K, x1 = 0.0255	3.37

Source: a compilation of properties of binary mixtures (doi:10.1016/j.molliq.2019.111099)
